IC50 data for 9 compounds are collected here from patent publication US7217723B2, “Heterocyclic compound having oxime group” (Eisai Co., Ltd., priority 2004, dated 2007).

This test deals with STAT6 activation. Briefly: STAT6 activation inhibition test (IL-4-induced alkaline phosphatase STAT6 reporter gene assay). Format: cell-based, human. The following applies: concentration giving 50% suppression of alkaline phosphatase activity induced by IL-4 (1 ng/mL), 16 hours, 293 cells stably expressing STAT6 gene and STAT6 reporter gene. On the procedure:
The inhibitory activity on STAT6 activation of the compound according to present invention was evaluated according to the following test.
1) Construction of the STAT6 Reporter Gene
The oligonucleotide of SEQ ID: 1 resuting from three STAT6 binding regions of the human immunoglobulin germline ε gene promoter linked togeter, and the complementary strand thereof were mixed, and after thermal denaturation and annealing, the 5′ and the 3′ ends were respectively cut with the restriction enzymes Kpn I (TaKaRa Shuzo Code No. 1068A) and Xba I (TaKaRa ShuzoCode No. 1093A), and the resulting fragment was cloned into the Kpn I/Xba I site of the pUG-BGH-PLAP vector (described in Molecular Pharmacology, 49: 860–873 1996). In addition, the TK promoter region of the herpesvirus for inducing general transcription factors was cloned into the Xba I/Hind III (TaKaRa ShuzoCode No. 1060A) site of the pUG-BGH-PLAP vector. Then, to collect a stable expression cell strain, the neomycin resistance gene, that is a PGK-neo expression cassette, was incorporated into the Sal I (TaKaRa Shuzo, Code No. 1080A) site of this vector. Cloning of the TK promoter and the PGK-neo expression cassette was carried out according to Molecular Pharmacology, 49: 860–873 1996.
2) Construction of the STAT6 Expression Vector
Using the oligonucleotide of SEQ ID: 2 containing the initiation codon of the STAT6 gene and the oligonucleotide of SEQ ID: 3 containing the stop codon, Total RNA was prepared from human peripheral blood cells with the RNeasy Mini kit (OIAGEN, Code No. 74104). Thereafter, a reverse transcription reaction was carried out with the Takara RNA LA PCR kit (TaKaRa Shuzo, Code No. RR012A) to prepare cDNA, and using the primers of SEQ ID: 2 and 3, a PCR reaction was carried out, to amplify the STAT6 gene.
PCR product was digested with EcoR I (TaKaRa Shuzo, Code No. 1040A) and Xho I (TaKaRa Shuzo, 1094A), thereafter, the digested fragment was isolated on an agarose gel. The isolated fragment was incorporated into the vector fragment derived from the EcoR I/Xho I digestion of the pcDNA3.1 (+) (invtrogen, Code No. U790-20) vector.
3) Transformation and Preparation of a Stable Expression Cell Strain
In a Falcon 6-well plate for tissue culture (Becton Dickinson, Code No. 35-3046), 3.0×10^5 of 293 cells derived from human embryo kidney (American Type Culture Collection) were distributed and cultured overnight. The STAT6 reporter gene (1.5 μg), the STAT6 gene (1.5 μg) that were prepared and lipofectamine (GIBCO BRL, Code No. 18324-012) (20 μL) were mixed in OPTI-MEM culture medium (GIBCO BRL, Code No. 31985-070) (0.3 mL), and allowed to stand at room temperature for 20 minutes. Thereafter, the OPTI-MEM culture medium (1.2 mL) was further added, OPTI-MEM culture medium not containing fetal calf serum was added to washed cells, which were cultured for 2 hours. A culture medium (1.5 mL) containing fetal calf serum was added, and the cells were cultured for 19 more hours. The culture was continued by exchanging the culture medium and adding Geneticin (SIGMA, Code No. G-5013) so as to obtain 1 mg/mL, and cells with drug tolerance were selected. The selected drug tolerant cells were suspended in a culture medium containing 1 mg/mL of Geneticin, and distributed in a 96-well microplate (Becton Dickinson, Code No. 35-3072) so as to obtain 0.5 cells/well to carrry out cloning, and the clones expressing alkaline phosphatase in response to IL-4 were collected.
4) STAT6 Activation Inhibition Test
Cells stably expressing the STAT6 gene and the STAT6 reporter gene, and expressing alkaline phosphatase in response to IL-4 were distributed in a 96-well microplate (Becton Dickinson, Code No. 35-3072) so as to obtain 5000 cells/180 μL/well, and cultured overnight. […]
A general note: Reporter assays use an easily measured gene product as a stand-in for the process of interest.

In turn, `CC(C)C(=NO)c1cc(S(=O)(=O)N(C)CC(O)c2ccc(F)cc2)c(N)s1` (stereo not drawn) [Example 64, 2-Amino-5-(1-hydroxyimino-2-methylpropyl)thiophene-3-sulfonic acid[2-(4-fluorophenyl)-2-hydroxyethyl]-methyl-amide] showed an IC50 of 40 nM. In the case of `CCc1cccc(NC(=O)O/N=C2/CCCc3c(S(=O)(=O)N(C)CC(O)c4ccc(F)cc4)csc32)c1` (stereo not drawn) [Example 66, (7Z)-7-({[(3-Ethylanilino)carbonyl]oxo}imino)-3-{[[2-(4-fluorophenyl)-2-hydroxyethyl](methyl)amino]sulfonyl}-4,5,6,7-tetrahydro-1-benzothiophene], the half-inhibitory concentration (IC50) worked out at 16 nM. Compound `CCOc1ccc(NC(=O)O/N=C2/CCCc3c(S(=O)(=O)N(C)CC(O)c4ccc(F)cc4)csc32)cc1` (stereo not drawn) [Example 73, (7Z)-7-({[(4-Ethoxyanilino)carbonyl]oxo}imino)-3-{[[2-(4-fluoro-phenyl)-2-hydroxyethyl](methyl)amino]sulfonyl}-4,5,6,7-tetrahydro-1-benzothiophene] displayed an IC50 of 0.9 nM. Consider `CCNC(=O)O/N=C1/CCCc2c(S(=O)(=O)N(C)CC(O)c3ccc(F)cc3)csc21` (stereo not drawn) [Example 83, (7z)-7-({[(Ethylamino)carbonyl]oxo}imino)-3-{[[2-(4-fluorophenyl)-2-hydroxyethyl](methyl)amino]sulfonyl}-4,5,6,7-tetrahydro-1-benzothiophene], for which the IC50 came out at 34 nM.

`CN(CC(O)c1ccc(F)cc1)S(=O)(=O)c1csc2c1CCC/C2=N/OC(N)=O` (stereo not drawn) [Example 87, (7Z)-7-{[(Aminocarbonyl)oxy]imino}-3-{[[2-(4-fluorophenyl)-2-hydroxyethyl](methyl)amino]sulfonyl}-4,5,6,7-tetrahydro-1-benzothiophene] returned a half-maximal inhibitory concentration (IC50) (Homo sapiens, HEK293) of 0.5 nM.

The compound `CN(CC(O)c1ccc(F)cc1)S(=O)(=O)c1csc2c1CCC/C2=N/OC(=O)C(C)(C)C` (stereo not drawn) [Example 88, (7Z)-7-{[(2,2-Dimethylpropanoyl)oxy]imino}-N-[2-(4-fluorophenyl)-2-hydroxyethyl]-N-methyl-4,5,6,7-tetrahydro-1-benzothiophene-3-sulfonamide] came in with a concentration for half-maximal inhibition (IC50) (Homo sapiens, HEK293) of 0.42 nM. The same measure, in the same setting: the value for `CN(CCc1ccccc1)C(=O)c1csc2c1CCC/C2=N/O` [Example 110, (7Z)-7-Hydroxyimino-4,5,6,7-tetrahydrobenzo[b]thiophene-3-carboxylic acid methylphenethyl amide] was 0.32 nM.

Regarding `CN(CCc1ccc(F)cc1)C(=O)c1csc2c1CCC/C2=N/O` [Example 124, (7Z)-7-Hydroxyimino-4,5,6,7-tetrahydrobenzo[b]thiophene-3-carboxylic acid[2-(4-fluorophenyl)ethyl]-methyl-amide], the IC50 amounted to 0.15 nM. Take “(7Z)-N-{1-(4-Fluorophenyl)-2-[(7-hydroxyimino-4,5,6,7-tetrahydrobe nzo[b]-thiophene-3-sulfonyl)methylamino]ethyl}acetamide [Example 23]”: half-maximal inhibition (IC50) required 9.5 nM.

Broadly, the IC50 is the concentration that inhibits the measured activity by half. A lower IC50 goes with inhibition by little substance.
